SMILES strings stand for the structures. Activity calls are given as the source filed them. How the calls were made is not given here; tested in parental BL2 cells.

The first assay in a line: cell cytotoxicity, dose response, cytotoxicity control, CellTiter-Glo (AID 1259333).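 Further: 0% = vehicle neutral controls and -100% = reference inhibitor positive controls.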 The conditions noted are these: cytotoxicity, CellTiter-Glo ATP luminescence; at 3.5 µM (top of the series). Background: In ATP-based viability assays light output follows the ATP content of the culture.
Turning to `C[C@@H]1CN([C@@H](C)CO)C(=O)Cc2cc(NS(=O)(=O)c3ccccc3)ccc2O[C@H]1CN(C)Cc1ccc(Cl)c(Cl)c1`, the activity change, negative = cytotoxicity is 24.1% (inactive).

Staying with this assay, now noted: cytotoxicity, CellTiter-Glo ATP luminescence; at 10 µM (top of the series).
`COc1ccc(-c2cnc3c(c2)C(=O)N([C@H](C)CO)C[C@@H](C)[C@@H](CN(C)C(=O)Nc2c(C)noc2C)O3)cc1`: the activity change, negative = cytotoxicity was 49.3% (inactive).

On to `O=c1cc(-c2ccccc2)oc2cc(O)cc(O)c12`, for which the activity change, negative = cytotoxicity is 52.1% (inactive). Take `C[C@@H]1CN([C@@H](C)CO)C(=O)Cc2cc(NS(=O)(=O)c3ccc(F)cc3)ccc2O[C@H]1CN(C)Cc1ccc(C(F)(F)F)cc1`: the activity change, negative = cytotoxicity was 20.6% (inactive). `COc1cccc2c1C(=O)c1c(O)c3c(c(O)c1C2=O)C[C@@](O)(C(C)=O)C[C@@H]3O[C@H]1C[C@H](N)[C@H](O)[C@H](C)O1`: the activity change, negative = cytotoxicity is 13.8% (inactive). Same read-out and setting: in the case of `CC(=O)OC1CCC2(C)C(CCC3C4CC=C(C(C)=O)C4(C)OC(=O)CC32)C1` (configuration not stated) it was 133% (inactive); in that of `C[C@H]1CN([C@@H](C)CO)C(=O)c2ccccc2-c2ccccc2CO[C@H]1CN(C)C(=O)[C@@H](Cc1ccccc1)N(C)C`, 83.4% (inactive). Same read-out and setting: the result for `CCc1cnc(N2[C@H](C#N)[C@H](c3ccc(C#CCC4CCCC4)cc3)[C@@H]2CO)s1` reads 56.6% (inactive); that for `N#C[C@H]1[C@@H](c2ccccc2-c2ccccc2)[C@@H](CO)N1C(=O)NC1CCCC1`, -17.1% (inactive). Consider `Fc1ccccc1/C=C1\CCCC2=C1Nc1nnnn1C2c1ccccc1F` (configuration not stated), for which the activity change, negative = cytotoxicity was 12.3% (inactive). The same measure, in the same setting: in the case of `CCOC(=O)c1c(SCCN2CCCC2)n(-c2ccccc2)c(=S)n(-c2ccccc2)c1=O` it was 63.8% (inactive); in that of `CC(=O)[C@]1(O)Cc2c(O)c3c(c(O)c2[C@@H](O[C@H]2C[C@H](N)[C@H](O)[C@H](C)O2)C1)C(=O)c1ccccc1C3=O`, -5.56% (inactive). As for `C[C@H](CO)N1C[C@H](C)[C@H](CN(C)C(=O)C2CCOCC2)Oc2ncc(C#CCc3ccccc3)cc2C1=O`, the activity change, negative = cytotoxicity was 0.181% (inactive).

Turning to `O=C(COc1cccnc1[N+](=O)[O-])c1ccc(Cl)s1`, the activity change, negative = cytotoxicity was 33.6% (inactive). Regarding `CCC(=O)NC(c1ccccc1OC)c1ccc2cccnc2c1O` (configuration not stated), the activity change, negative = cytotoxicity was 40.2% (inactive). In the case of `Cc1cnc(NC(=O)c2ccc(OCC3CCCO3)cc2)s1` (configuration not stated), the activity change, negative = cytotoxicity is 5.83% (inactive). With `CC(C)Cc1ccc(C(C)/C=C2/CCC(CN3CCCCC3)C2=O)cc1` (configuration not stated), the activity change, negative = cytotoxicity is 26.2% (inactive).

`CS(=O)(=O)c1ccc(C(=O)OCC(=O)NC(=O)C2COc3ccccc3O2)cc1[N+](=O)[O-]` (configuration not stated): the activity change, negative = cytotoxicity is 25.3% (inactive).

For the compound `CC(C)(C)NCC(=Cc1ccccc1)C(=O)c1ccccc1`, the activity change, negative = cytotoxicity is 103% (inactive). Consider `C(=Cc1c[nH]c2ccccc12)c1nccc2ccccc12`, for which the activity change, negative = cytotoxicity was 33.1% (inactive). Turning to `COc1ccccc1NC(c1cccnc1)c1ccc2cccnc2c1O` (configuration not stated), the activity change, negative = cytotoxicity is 123% (inactive). On to `O=C(Nc1ccc2c(c1)OCCO2)C1CCCC1`, for which the activity change, negative = cytotoxicity is 9.1% (inactive).

With `CCCCC1C(=O)NC(=S)N(C)C1=O` (configuration not stated), the activity change, negative = cytotoxicity is 33.7% (inactive).

As to `CO[C@@H](CN(C)S(=O)(=O)c1ccc(Cl)cc1)[C@H](C)CN(Cc1ccccc1Cl)[C@@H](C)CO`, the activity change, negative = cytotoxicity is 1.13% (inactive). Still for that read-out and setting: in the case of `C[C@H]1CCCCO[C@H](CN(C)Cc2ccc(C(F)(F)F)cc2)[C@@H](C)CN([C@@H](C)CO)C(=O)c2cc(NC(=O)Nc3cccc4ccccc34)ccc2O1` it was 29.1% (inactive). With `CC(=O)Nc1nc2nc(-c3ccccc3)cc(-c3ccccc3)n2n1`, the activity change, negative = cytotoxicity is 47.9% (inactive). For `O=S(c1ccccc1O)S(=O)c1ccccc1O` (configuration not stated), the activity change, negative = cytotoxicity is 40.7% (inactive).

(Values after PubChem BioAssay AID1259333 (Broad Institute, 2017).)
